Experimental findings from US20240391882A1 (Mirati Therapeutics, Inc., priority 2023, published 2024) are described below.

One test has as its system pAKT in T47D (PI3Kα H1047R mutant) cells. The test is described as follows: Inhibition of pAKT (alphaLISA Surefire Ultra AKT 1/2/3 pS473) in T47D cells. As to conditions: Homo sapiens; T47D (PI3Kα H1047R mutant) cells, 24 hr compound incubation, alphaLISA pS473; read-out: T47D (H1047R) pAKT 24 hr (IC50). It is filed as cell-based. On the procedure: The ability of a compound of Formula (I) to inhibit the formation of pAKT was measured using alphaLISA Surefire Ultra AKT 1/2/3 (pS473) Assay Kit (#ALSU-PAKT-B50K) was obtained from Perkin Elmer (Waltham, MA).
To prepare assay plates for pAKT alphaLISA assays, cells were trypsinized, resuspended in fresh media, and viable cells were counted utilizing trypan blue exclusion. Prior to seeding, cells were washed with PBS and resuspended in HBSS (Gibco, #14025092). T47D (12,000/w), SKBR3 (12,000/w), or MKN1 (24,000/w) cells were seeded at 12 μl per well in a solid white flat bottom 384 cell culture plate (Perkin Elmer #6007680).
Immediately after seeding, cells were dosed using an Echo Liquid Handler (Beckman Coulter) with compounds at a 10.4 μm starting concentration and serially diluted (1:4) for a total of 10 concentrations. 14 vehicle (DMSO) and 14 positive control (Alpelisib @3.125 μm) wells were included on each assay plate. Cells were incubated with the compounds (solubilized in DMSO) for approximately 24 hours at 37° C. After 24 hours of treatment, cells were lysed with 3 μl of the 5× lysis buffer (provided and incubated at room temperature for 15 min on a microtiter plate shaker). Once cells were sufficiently lysed, 7.5 μl of the acceptor bead mix (made using the manufacturers recommended dilutions) was added to each well and left on the microtiter plate shaker for 1 min prior to incubating plates at room temperature for 1 hour, in the absence of light. After 1 hour of incubation with the acceptor bead mix, 7.5 μl of the donor bead mix (made using the manufacturers recommended dilutions) was added to each well and left on the microtiter plate shaker for 1 min prior to incubating plates at room temperature overnight in the absence of light. Plates were then imaged the following day using a CLARIOstar microplate reader (BMG Labtech, Germany).
Percent of control values were calculated by subtracting the average signal from the positive control (alpelisib) treated wells from all treated wells (including DMSO control wells) and then divided by the average signal from the vehicle DMSO treated control wells. Percent of vehicle control values were plotted as log(inhibitor) vs. response—Variable slope (four parameters) for curve fitting and IC50 values were determined using XLfit.
As a reminder, the IC50 is the midpoint of a concentration-inhibition curve. As for `COC[C@@]1(F)CCN(c2nc3c([C@@H](C)Nc4ccc(Cl)nc4C(=O)O)cc(C)cc3nc2C#N)C1` (single isomer, unassigned) [Example 164], the IC50 was 2.1 nM. On the same count and under the same terms, under `COC[C@]1(F)CCN(c2nc3c([C@@H](C)Nc4ccc(Cl)nc4C(=O)O)cc(C)cc3nc2C#N)C1` (single isomer, unassigned) [Example 165] stands 5.6 nM. Consider `COC(=O)c1nc(Cl)ccc1N[C@H](C)c1cc(C)cc2nc(C#N)c(N3CC[C@@](C)(F)C3)nc12` (single isomer, unassigned) [Example 180], for which the IC50 was determined as 1.6 nM. For the compound `COC(=O)c1nc(Cl)ccc1N[C@H](C)c1cc(C)cc2nc(C#N)c(N3CC[C@](C)(F)C3)nc12` (single isomer, unassigned) [Example 181], the IC50 was found to be 1.7 nM. On to `Cc1cc([C@@H](C)Nc2ccc(Cl)nc2C(=O)O)c2nc(N3CCc4cc(C#N)ccc4C3)c(C#N)nc2c1` [Example 85, (R)-6-chloro-3-((1-(2-cyano-3-(6-cyano-3,4-dihydroisoquinolin-2(1H)-yl)-7-methylquinoxalin-5-yl)ethyl)amino)picolinic acid], for which the half-maximal inhibitory concentration (IC50) was 2 nM. Still for that read-out and setting: under `Cc1cc([C@@H](C)Nc2ccc(Cl)nc2C(=O)O)c2nc(N3CC(C(F)(F)F)C3)c(C#N)nc2c1` [Example 131, (R)-6-chloro-3-((1-(2-cyano-7-methyl-3-(3-(trifluoromethyl)azetidin-1-yl)quinoxalin-5-yl)ethyl)amino)picolinic acid] stands 2.2 nM; under `COCCNc1nc2c([C@@H](C)Nc3ccc(Cl)nc3C(=O)O)cc(C)cc2nc1C#N` [Example 132, (R)-6-chloro-3-((1-(2-cyano-3-((2-methoxyethyl)amino)-7-methylquinoxalin-5-yl)ethyl)amino)picolinic acid], 0.9 nM; under `Cc1cc([C@@H](C)Nc2ccc(Cl)nc2C(=O)O)c2nc(N3CCN(c4ccc(C(F)(F)F)nc4)CC3)c(C#N)nc2c1` [Example 133, (R)-6-chloro-3-((1-(2-cyano-7-methyl-3-(4-(6-(trifluoromethyl)pyridin-3-yl)piperazin-1-yl)quinoxalin-5-yl)ethyl)amino)picolinic acid], 0.8 nM. Same read-out and setting: the same measure for `Cc1cc([C@@H](C)Nc2ccccc2C(=O)O)c2nc(N3CC4(CCO4)C3)c(C#N)nc2c1` [Example 134, (R)-2-((1-(2-cyano-7-methyl-3-(1-oxa-6-azaspiro[3.3]heptan-6-yl)quinoxalin-5-yl)ethyl)amino)benzoic acid]: 10.9 nM; for `Cc1cc([C@@H](C)Nc2ccc(Cl)nc2C(=O)O)c2nc(NCC3COC3)c(C#N)nc2c1` [Example 135, (R)-6-chloro-3-((1-(2-cyano-7-methyl-3-((oxetan-3-ylmethyl)amino)quinoxalin-5-yl)ethyl)amino)picolinic acid]: 19.2 nM. Same read-out and setting: under `Cc1cc([C@@H](C)Nc2ccc(Cl)nc2C(=O)O)c2nc(N3CCC(n4cccn4)CC3)c(C#N)nc2c1` [Example 136, (R)-3-((1-(3-(4-(1H-pyrazol-1-yl)piperidin-1-yl)-2-cyano-7-methylquinoxalin-5-yl)ethyl)amino)-6-chloropicolinic acid] stands 0.7 nM; under `CC(=O)N(C)C1CCN(c2nc3c([C@@H](C)Nc4ccc(Cl)nc4C(=O)O)cc(C)cc3nc2C#N)CC1` [Example 137, (R)-6-chloro-3-((1-(2-cyano-7-methyl-3-(4-(N-methylacetamido)piperidin-1-yl)quinoxalin-5-yl)ethyl)amino)picolinic acid], 1.3 nM; under `Cc1cc([C@@H](C)Nc2ccc(Cl)nc2C(=O)O)c2nc(N3CCC(n4cc(C)cn4)CC3)c(C#N)nc2c1` [Example 138, (R)-6-chloro-3-((1-(2-cyano-7-methyl-3-(4-(4-methyl-1H-pyrazol-1-yl)piperidin-1-yl)quinoxalin-5-yl)ethyl)amino)picolinic acid], 0.8 nM. Turning to `Cc1cc([C@@H](C)Nc2ccc(Cl)nc2C(=O)O)c2nc(N3CCC(n4cc(C(F)(F)F)cn4)CC3)c(C#N)nc2c1` [Example 139, (R)-6-chloro-3-((1-(2-cyano-7-methyl-3-(4-(4-(trifluoromethyl)-1H-pyrazol-1-yl)piperidin-1-yl)quinoxalin-5-yl)ethyl)amino)picolinic acid], the IC50 was determined as 2.1 nM.

For a further test, the system named is T47D (PI3Kα H1047R mutant) cells. The test is described as follows: Cell viability (CellTiter-Glo 2.0) in T47D cells. The following applies: Homo sapiens, T47D, 72 h, approximately 72 hours. It is filed as cell-based. On the procedure: This Example illustrates that representative compounds of the invention decrease the viability of cells.
The ability of a compound of Formula (I) to decrease the viability of cells was measured using CellTiter-Glo 2.0 (CTG) Luminescent Cell Viability Assay (#G9241) obtained from Promega (Madison, WI).
To prepare assay plates for viability assays, cells were trypsinized, resuspended in fresh media, and viable cells were counted utilizing trypan blue exclusion. T47D, SKBR3, or MKN1 cells were seeded at 1000 cells in 30 μl per well in a solid white flat bottom 384 cell culture plate (Perkin Elmer #6007680) and incubated at 37° C. overnight.
Assay day 1, cells were dosed using an Echo Liquid Handler (Beckman Coulter) with compounds at a 10 μm starting concentration and serially diluted (1:4) for a total of 10 concentrations. Cells were incubated for approximately 72 hours with the compounds (solubilized in DMSO) at 37° C. After 72 hours of treatment, cell plates were equilibrated to room temperature before adding 15 μl of CTG to each well, plates were then covered in aluminum foil to protect from light, incubated at room temperature for 30 minutes on a microtiter plate shaker, and luminescence readings were collected using a CLARIOstar microplate reader (BMG Labtech, Germany). Percent of vehicle control values were plotted as log(inhibitor) vs. response—Variable slope (four parameters) for curve fitting and IC50 values were determined using XLfit.
For the compound `COC[C@@]1(F)CCN(c2nc3c([C@@H](C)Nc4ccc(Cl)nc4C(=O)O)cc(C)cc3nc2C#N)C1` (single isomer, unassigned) [Example 164], inhibition was half-maximal at 55 nM (IC50).

Turning to `COC[C@]1(F)CCN(c2nc3c([C@@H](C)Nc4ccc(Cl)nc4C(=O)O)cc(C)cc3nc2C#N)C1` (single isomer, unassigned) [Example 165], the IC50 is 97 nM. Same read-out and setting: the same measure for `Cc1cc([C@@H](C)Nc2ccc(Cl)nc2C(=O)O)c2nc(N3CCC(F)(F)[C@@H]3C)c(C#N)nc2c1` (single isomer, unassigned) [Example 169]: 108 nM; for `Cc1cc([C@@H](C)Nc2ccc(Cl)nc2C(=O)O)c2nc(N3CCC(F)(F)[C@H]3C)c(C#N)nc2c1` (single isomer, unassigned) [Example 170]: 93.3 nM. `CO[C@H]1CN(c2nc3c([C@@H](C)Nc4ccc(Cl)nc4C(=O)O)cc(C)cc3nc2C#N)CC1(F)F` (single isomer, unassigned) [Example 171]: the IC50 turned out to be 178 nM. On the same count and under the same terms, the same measure for `CO[C@@H]1CN(c2nc3c([C@@H](C)Nc4ccc(Cl)nc4C(=O)O)cc(C)cc3nc2C#N)CC1(F)F` (single isomer, unassigned) [Example 172]: 170 nM; for `COC(=O)c1nc(Cl)ccc1N[C@H](C)c1cc(C)cc2nc(C#N)c(N3CC[C@@](C)(F)C3)nc12` (single isomer, unassigned) [Example 180]: 57.8 nM.

`COC(=O)c1nc(Cl)ccc1N[C@H](C)c1cc(C)cc2nc(C#N)c(N3CC[C@](C)(F)C3)nc12` (single isomer, unassigned) [Example 181] displayed an IC50 of 44 nM. In turn, `Cc1cc([C@@H](C)Nc2cccnc2C(=O)O)c2nc(N3CCC(F)(F)CC3)c(C#N)nc2c1` [Example 118, (R)-3-((1-(2-cyano-3-(4,4-difluoropiperidin-1-yl)-7-methylquinoxalin-5-yl)ethyl)amino)picolinic acid] showed an IC50 of 383 nM. On to `CCOCC1CCN(c2nc3c([C@@H](C)Nc4ccc(Cl)nc4C(=O)O)cc(C)cc3nc2C#N)CC1` [Example 119, (R)-6-chloro-3-((1-(2-cyano-3-(4-(ethoxymethyl)piperidin-1-yl)-7-methylquinoxalin-5-yl)ethyl)amino)picolinic acid], for which the midpoint of inhibition, the IC50, lay at 59.9 nM. `Cc1cc([C@@H](C)Nc2cscc2C(=O)O)c2nc(N3CCC(F)(F)CC3)c(C#N)nc2c1` [Example 121, (R)-4-((1-(2-cyano-3-(4,4-difluoropiperidin-1-yl)-7-methylquinoxalin-5-yl)ethyl)amino)thiophene-3-carboxylic acid] returned an IC50 of 651 nM. The same measure, in the same setting: the same measure for `Cc1cc([C@@H](C)Nc2ccc(Cl)nc2C(=O)O)c2nc(N3CC4(CCO4)C3)c(C#N)nc2c1` [Example 130, (R)-6-chloro-3-((1-(2-cyano-7-methyl-3-(1-oxa-6-azaspiro[3.3]heptan-6-yl)quinoxalin-5-yl)ethyl)amino)picolinic acid]: 65.6 nM; for `Cc1cc([C@@H](C)Nc2ccc(Cl)nc2C(=O)O)c2nc(N3CCO[C@H](C)C3)c(C#N)nc2c1` [Example 168, 6-chloro-3-(((R)-1-(2-cyano-7-methyl-3-((R)-2-methylmorpholino)quinoxalin-5-yl)ethyl)amino)picolinic acid]: 45.8 nM; for `Cc1cc([C@@H](C)Nc2ccc(Cl)nc2C(=O)O)c2nc(N3CC[C@H](S(C)(=O)=O)C3)c(C#N)nc2c1` [Example 175, 6-chloro-3-(((R)-1-(2-cyano-7-methyl-3-((S)-3-(methylsulfonyl)pyrrolidin-1-yl)quinoxalin-5-yl)ethyl)amino)picolinic acid]: 344 nM.
